Assay: Intraduodenal (id) bioavailability screen in minipigs, plasma level of parent Mn complex by HPLC/MS/MS
Type: in vivo, Gottingen minipig
Conditions: for Mini-Pig BioA: id 10 mg/kg, vs 1 mg/kg iv parent chloro complex, AUC0→24 h
Method: Compounds were screened for oral bioavailability by injecting the formulated prodrugs directly into the duodenum (intraduodenal or id administration) of the minipig test subjects, thus bypassing the acidic environment of the stomach and thereby eliminating potentially misleading oral bioavailability results that could arise from alteration of the test article drug in the acid environment of the stomach.
The studies were conducted at Xenometrics LLC (Stillwell, Kans.) and the id bioavailability was determined using various axial ligand derivative complexes of GC4419, GC4444, GC4403 and GC4401.
Male Gottingen minipigs (4-5 mo old, 9-12 kg weight) were purchased from Marshall BioResources and housed at Xenometrics. […] The distal end was exteriorized with a reusable accessible hub (see surgical details below). During a recovery period of at least 2 weeks the minipigs were handled daily to acclimate them to the test procedures, i.e., id dosing and blood collections. For each experiment, each minipig received a test article drug dissolved or suspended in an excipient vehicle. […] All dosing experiments were conducted in fasted animals. Food was withdrawn from the minipigs 16 hours before dosing. The minipigs had ad libitum access to water. Dosed minipigs were allowed access to food 6 hour after dosing. The test article was administered at a dose of 10 mg/kg parent drug in 0.1 mL/kg vehicle (e.g., 1.5 mL in 15 kg minipig) as a bolus injection (˜1 minute) via the id cannula. The actual amount of total test article drug administered varied with the formula weight of the prodrug. An equal volume of excipient vehicle was used to flush the cannula after the test article was administered. Approximately 6 hours later, corn oil was used to flush the cannula. After approximately 24 hours post-dose, the catheter was flushed with sterile saline solution and capped. At the following time-points 0.25, 0.5, 1, 2, 4, 8, 24 and 48 hour post-injection, 2 mL blood samples were collected by cranial vena cava puncture (4 mL Sodium heparin Vacutainer, 20 g 1.5″ needle) after the skin surface was wiped with ethanol. The minipig was placed in a sling in a recumbent position without anesthesia for the collection of blood samples. The minipigs were never used more than once per 7 days for experimentation. The blood samples were kept on ice until processed for plasma. Blood samples were centrifuged at 1200×g for ten minutes at 4° C. and plasma samples were transferred to 96 well plate tubes, capped and stored at −20° C. until shipment on dry ice to the analytical laboratory used for measuring the concentration of drug in the plasma. The concentration of the parent manganese pentaaza macrocylic ring complex (independent of the composition of the axial ligands) was measured in plasma using a validated HPLC/MS/MS method that is linear between 50 ng/mL and 20,000 ng/mL.
The oils used for preparing the dosing solutions were used as supplied from commercial sources. The Capmul MCM (NF) is a mixture of mono/diglycerides of caprylic/capric acids and was supplied by ABITEC Corporation, Janesville, Wis. The Miglyol 812 N is a mixture of caprylic/capric acid triglycerides and was supplied by Cremer Oleo Division, Eatontown, N.J. Labrafil M 2125 CS (NF) is chemically defined to be linoleoyl polyoxyl-6 glycerides NF and was supplied by Gattefosse, SAINT-PRIEST Cedex, France. Peceol is chemically defined to be the monoglyceride, glyceryl monooleate NF, and was supplied by Gattefosse, SAINT-PRIEST Cedex, France. Maisine 35-1 is chemically defined to be the monoglyceride glyceryl monolinoleate (NF) and was supplied by Gattefosse, SAINT-PRIEST Cedex, France. Labrasol (NF) is chemically defined to be caprylocaproyl polyoxyl-8 glycerides NF and was supplied by Gattefosse, SAINT-PRIEST Cedex, France. Labrafil M 1944 CS is chemically defined to be oleoyl polyoxyl-6 glycerides (NF), and is available from Gattefosse, SAINT-PRIEST Cedex, France. […]

[1] = base oil Capmul MCM, 10% by weight
[2] = base oil Maisine 35-1, 10% by weight
[3] = base oil Labrafil M2125 CS, 10% by weight

Substance | Mini-Pig BioA [1] | Mini-Pig BioA [2] | Mini-Pig BioA (base oil Peceol, 10% by weight) | Mini-Pig BioA [3] | also measured
Manganese(II)bis-Benzoato[(4aS,13aS,17aS,21aS)-1,2,3,4,4a,5,6,12,13,13a,14,15,16,17,17a,18,19,20,21,21a-Eicosahydro-11,7-nitrilo-7H-dibenzo[b,h][1,4,7,10]tetraazacycloheptadecine-κN5,κN13,κN18,κN21,κN22]- [GC4712] | 24% | 18% | 29% |  | 
Manganese(II)bis-L-Lactato[(4aS,13aS,17aS,21aS)-1,2,3,4,4a,5,6,12,13,13a,14,15,16,17,17a,18,19,20,21,21a-Eicosahydro-11,7-nitrilo-7H-dibenzo[b,h][1,4,7,10]tetraazacycloheptadecine-κN5,κN13,κN18,κN21,κN22]- [GC4714] | 36% |  |  |  | 
Manganese(II)bis-L-phenylglycinato[(4aS,13aS,17aS,21aS)-1,2,3,4,4a,5,6,12,13,13a, 14,15,16,17,17a,18,19,20,21,21a-Eicosahydro-11,7-nitrilo-7H-dibenzo[b,h][1,4,7,10]tetraazacyclo-heptadecine-κN5,κN13,κN18,κN21,κN22]- [GC4702] | 43% |  | 29% | 25% | Mini-Pig BioA (base oil Miglyol 812N, 10% by weight): 42%; oral bioavailability / absorption, comparison in words (minipig id dosing, oil formulations, comparison between axial ligands): much better absorbed
Manganese(II)bis-acetato[(4aS,13aS,17aS,21aS)-1,2,3,4,4a,5,6,12,13,13a,14,15,16,17,17a,18,19,20,21,21a-Eicosahydro-11,7-nitrilo-7H-dibenzo[b,h][1,4,7,10]tetraazacycloheptadecine-κN5,κN13,κN18,κN21,κN22]- [GC4701] | 15% | 8% | 11% | 16% | 
Manganese(II)bis-cyclohexanebutyrato[(4aS,13aS,17aS,21aS)-1,2,3,4,4a,5,6,12,13,13a, 14,15,16,17,17a,18,19,20,21,21a-Eicosahydro-11,7-nitrilo-7H-dibenzo[b,h][1,4,7,10]tetraazacyclo-heptadecine-κN5,κN13,κN18,κN21,κN22]- [GC4707] | 9% |  |  |  | 
Manganese(II)bis-octanoato[(4aS,13aS,17aS,21aS)-1,2,3,4,4a,5,6,12,13,13a,14,15,16,17,17a,18,19,20,21,21a-Eicosahydro-11,7-nitrilo-7H-dibenzo[b,h][1,4,7,10]tetraazacycloheptadecine-κN5,κN13,κN18,κN21,κN22]- [GC4710] | 13% | 8% |  | 21% | 
Manganese(II)bis-phenylglyoxaloto[(4aS,13aS,17aS,21aS)-1,2,3,4,4a,5,6,12,13,13a,14,15,16,17,17a,18,19,20,21,21a-Eicosahydro-11,7-nitrilo-7H-dibenzo[b,h][1,4,7,10]tetraazacyclohepta-decine-κN5,κN13,κN18,κN21,κN22]- [GC4719] | 25% | 31% | 28% |  | 
Manganese(II)bis-pivaloato[(4aS,13aS,17aS,21aS)-1,2,3,4,4a,5,6,12,13,13a,14,15,16,17,17a,18,19,20,21,21a-Eicosahydro-11,7-nitrilo-7H-dibenzo[b,h][1,4,7,10]tetraazacycloheptadecine-κN5,κN13,κN18,κN21,κN22]- [GC4709] | 17% |  |  | 22% | 
Manganese(II)bis-propionato[6R-Methyl(4aR,13aR,17aR,21aR)-1,2,3,4,4a,5,6,12,13,13a,14,15,16,17,17a,18,19,20,21,21a-Eicosahydro-11,7-nitrilo-7H-dibenzo[b,h][1,4,7,10]tetraazacycloheptadecine-κN5,κN13,κN18,κN21,κN22]- [GC4747] |  |  |  | 20% | 
Manganese(II)bis-propionato[(4aR,13aR,17aR,21aR)-1,2,3,4,4a,5,6,12,13,13a,14,15,16,17,17a,18,19,20,21,21a-Eicosahydro-11,7-nitrilo-7H-dibenzo[b,h][1,4,7,10]tetraazacycloheptadecine-κN5,κN13,κN18,κN21,κN22]- [GC4748] |  |  |  | 22% | 
Manganese(II)bis-propionato[(4aS,13aS,17aS,21aS)-1,2,3,4,4a,5,6,12,13,13a,14,15,16,17,17a,18,19,20,21,21a-Eicosahydro-11,7-nitrilo-7H-dibenzo[b,h][1,4,7,10]tetraaza-cycloheptadecine-κN5,κN13,κN18,κN21,κN22]- [GC4711] | 27% | 29% | 29% | 44% | Mini-Pig BioA (base oil Labrafil M1944 CS, 10% by weight): 23%
Manganese(II)bis-racemic-2-phenylpropionato[(4aS,13aS,17aS,21aS)-1,2,3,4,4a,5,6,12,13,13a,14,15,16,17,17a,18,19,20,21,21a-Eicosahydro-11,7-nitrilo-7H-dibenzo[b,h][1,4,7,10]tetraazacycloheptadecine-κN5,κN13,κN18,κN21,κN22]- [GC4705] | 23% |  | 24% |  | 

Second part, led by results:

Mini-Pig BioA [1] | Mini-Pig BioA [2] | Mini-Pig BioA (base oil Peceol, 10% by weight) | Mini-Pig BioA [3] | Substance | also measured
10% |  |  |  | Manganese(II)bis-L-phenylalaninato[(4aS,13aS,17aS,21aS)-1,2,3,4,4a,5,6,12,13,13a,14,15,16,17,17a,18,19,20,21,21a-Eicosahydro-11,7-nitrilo-7H-dibenzo[b,h][1,4,7,10]tetraazacyclo-heptadecine-κN5,κN13,κN18,κN21,κN22]- [GC4704] | 
13% |  |  |  | Manganese(II)bis-L-valinato[(4aS,13aS,17aS,21aS)-1,2,3,4,4a,5,6,12,13,13a,14,15,16,17,17a,18,19,20,21,21a-Eicosahydro-11,7-nitrilo-7H-dibenzo[b,h][1,4,7,10]tetraazacyclo-heptadecine-κN5,κN13,κN18,κN21,κN22]- [GC4746] | 
12% |  |  |  | Manganese(II)bis-dodecanoato[(4aS,13aS,17aS,21aS)-1,2,3,4,4a,5,6,12,13,13a,14,15,16,17,17a,18,19,20,21,21a-Eicosahydro-11,7-nitrilo-7H-dibenzo[b,h][1,4,7,10]tetraazacycloheptadecine-κN5,κN13,κN18,κN21,κN22]- [GC4708] | 
 |  | 18% | 21% | Manganese(II)bis-n-Butyrato[(4aS,13aS,17aS,21aS)-1,2,3,4,4a,5,6,12,13,13a,14,15,16,17,17a,18,19,20,21,21a-Eicosahydro-11,7-nitrilo-7H-dibenzo[b,h][1,4,7,10]tetraazacycloheptadecine-κN5,κN13,κN18,κN21,κN22]- [GC4713] | 
32% | 28% |  |  | Manganese(II)bis-phenylacetato[(4aS,13aS,17aS,21aS)-1,2,3,4,4a,5,6,12,13,13a,14,15,16,17,17a,18,19,20,21,21a-Eicosahydro-11,7-nitrilo-7H-dibenzo[b,h][1,4,7,10]tetraazacyclo-heptadecine-κN5,κN13,κN18,κN21,κN22]- [GC4718] | 
28% |  |  |  | Manganese(II)bis-rac-Mandelato[(4aS,13aS,17aS,21aS)-1,2,3,4,4a,5,6,12,13,13a,14,15,16,17,17a,18,19,20,21,21a-Eicosahydro-11,7-nitrilo-7H-dibenzo[b,h][1,4,7,10]tetraazacycloheptadecine-κN5,κN13,κN18,κN21,κN22]- [GC4706] | 
